The results in this text go back to patent US4370336A, “3,5-Disubstituted-1H-1,2,4-triazole derivatives as antifertility agents” (priority 1981, dated 1983).

Like-named read-outs stand apart in the source and are kept apart here. Where only a bound is given, the exact number is not on record here.

Test [1] has as its system female Sprague-Dawley rats. The test can be described thus: anti-reproductive activity in rats, subcutaneous. It counts as in vivo, Sprague-Dawley rat. The following applies: Rattus norvegicus, sc; for responders at 20 mg/kg: 384 h, 20 mg/kg s.c. for five days from day 6 of pregnancy, sesame oil, autopsy day 16, read-out: reduction of live fetuses (share of treated rats). How it is done: (§1) Representative experiments for assessing antifertility activity were carried out with female Syrian golden hamsters weighing 100 to 130 g. The animals were mated and the presence of sperm in the vagina was taken as evidence of mating. […] Pregnancy was later confirmed at the time of autopsy by presence of fetuses or implantation sites in the uterus. Even if an animal aborts the fetus, implantation scars still remain as evidence that the animal has been pregnant.
(§2) The animals were autopsied on day 14 of pregnancy and the uteri were examined for evidence of pregnancy (implantation sites, fetal resorptions or live fetuses), hemorrage, and evidence of abnormalities of the uterus, placenta or fetuses.
The same criteria and experimental conditions as above were also applied when the anti-reproductive activity of the compounds of the invention was investigated in other animal species such as, for instance, rats, dogs, monkeys and baboons. In representative experiments, female Sprague-Dawley rats weighing from 200 to 300 g. were treated subcutaneously with a dosage of 20 mg/kg of the compound to be tested, dissolved in sesame oil, for five consecutive days starting from day 6 of pregnancy.

Test [2] relates to hamsters. The test can be described thus: antifertility activity in hamsters by oral route. The test is classed as in vivo, hamster. The settings on record: Mesocricetus auratus; for inhibition in vivo at 10 mg/kg: oral dosage of 10 mg/kg, read-out: reduction of live fetuses; for ED50: po, absence of live fetuses in 50% of the animals. How it is done:
as §1, §2
The experiments for assessing this property were carried out on hamsters following the same procedure as above, with the obvious exception that the compounds were administered orally instead of subcutaneously.

Test [3] relates to female Syrian golden hamsters. The test can be described thus: post-coital-post-implantation antifertility activity in hamsters, subcutaneous. The following applies: for ED50: Mesocricetus auratus, sc. It counts as in vivo, Syrian golden hamster. Here is the method:
as §1, §2

The mark [4] stands for this setting: hamsters, 100% activity (absence of live fetuses) in 50% of the animals, read-out: ED50.

For orientation: ED50 means the dose that gives a 50% effect, or the effect in half of the subjects. As for `COc1cccc(-c2n[nH]c(-c3ccccc3C)n2)c1` [Example 1, 3-(m-Methoxyphenyl)-5-(o-tolyl)-1H-1,2,4-triazole], the responders at 20 mg/kg in test [1] is at least 60%. Moreover, the median effective dose (ED50) in test [1] (absence of live fetuses in 50% of the animals) turned out to be 1 mg/kg; in test [2] it was 5 mg/kg; in test [3] (setting [4]) it was 0.08 mg/kg. Besides, the inhibition in vivo at 10 mg/kg in test [2] is around 60%.
As to `COc1cccc(-c2n[nH]c(-c3cc(Cl)ccc3C)n2)c1` [Example 32, 5-(5-Chloro-2-methylphenyl)-3-(m-methoxyphenyl)-1H-1,2,4-triazole], the responders at 20 mg/kg in test [1] was at least 60%. The inhibition in vivo at 10 mg/kg in test [2] is around 60%. For the same molecule, the ED50 in test [3] (setting [4]) turned out to be 0.35 mg/kg.
Regarding `CCc1ccccc1-c1nc(-c2ccc(OC)c(OC)c2)n[nH]1` [Example 37, 5-(o-Ethylphenyl)-3-(3,4-dimethoxyphenyl)-1H-1,2,4-triazole], the median effective dose (ED50) in test [3] (setting [4]) was determined as 0.05 mg/kg.
`CCOc1cccc(-c2n[nH]c(-c3ccccc3C)n2)c1` [Example 9, 3-(m-Ethoxyphenyl)-5-(o-tolyl)-1H-1,2,4-triazole]: in test [3] (setting [4]), the ED50 turned out to be 0.07 mg/kg.
For `COc1cccc(-c2n[nH]c(-c3ccc(C)cc3C)n2)c1` [Example 26, 5-(2,4-Dimethylphenyl)-3-(m-methoxyphenyl)-1H-1,2,4-triazole], the responders at 20 mg/kg in test [1] was at least 60%. Moreover, the inhibition in vivo at 10 mg/kg in test [2] is around 60%. In test [3] (setting [4]), the ED50 came to 0.04 mg/kg.
As for `c1ccc(-c2n[nH]c(-c3ccccc3)n2)cc1` [3,5-diphenyl-1H-1,2,4-triazole, reference compound], it took a dose of 6 mg/kg to reach the 50% effect level in test [3] (ED50). Moreover, the “antifertility activity relative to the compounds of the invention” value in test [3] (hamsters, 10 mg/kg s.c. daily for 5 days (days 4-8 of pregnancy), comparison) is on record as “much less active”.
As to `COc1cccc(-c2n[nH]c(-c3ccc(OC)cc3C)n2)c1` [Example 34, 5-(4-Methoxy-2-methylphenyl)-3-(m-methoxyphenyl)-1H-1,2,4-triazole], in test [3] (setting [4]), the ED50 turned out to be 0.2 mg/kg.
`Cc1ccc(-c2nc(-c3ccccc3)n[nH]2)c(C)c1` [Example 25, 5-(2,4-Dimethylphenyl)-3-phenyl-1H-1,2,4-triazole]: in test [1], the responders at 20 mg/kg is at least 60%. Besides, the inhibition in vivo at 10 mg/kg in test [2] was around 60%. Also, the ED50 in test [3] (setting [4]) came out at 0.2 mg/kg.
For `CCc1ccccc1-c1nc(-c2ccc3c(c2)OCO3)n[nH]1` [Example 22, 5-(o-Ethylphenyl)-3-(3,4-methylenedioxyphenyl)-1H-1,2,4-triazole], the responders at 20 mg/kg in test [1] is at least 60%. Moreover, in test [2], the inhibition in vivo at 10 mg/kg is around 60% and the 50% effect level (ED50) was put at a dose of 3 mg/kg. In addition, the median effective dose (ED50) in test [3] (setting [4]) worked out at 0.03 mg/kg.
With `Cc1cc(Cl)ccc1-c1nc(-c2ccccc2)n[nH]1` [Example 29, 5-(4-Chloro-2-methylphenyl)-3-phenyl-1H-1,2,4-triazole], the responders at 20 mg/kg in test [1] was at least 60%. The inhibition in vivo at 10 mg/kg in test [2] was around 60%. Also, the ED50 in test [3] (setting [4]) was found to be 0.14 mg/kg.
For the molecule `CCc1ccccc1-c1nc(-c2ccc(OC)cc2)n[nH]1` [Example 36, 5-(o-Ethylphenyl)-3-(p-methoxyphenyl)-1H-1,2,4-triazole], the ED50 is 5 mg/kg in test [2] and 0.15 mg/kg in test [3] (setting [4]).
Consider `C=CCOc1cccc(-c2n[nH]c(-c3ccccc3C)n2)c1` [Example 10, 3-(m-Allyloxyphenyl)-5-(o-tolyl)-1H-1,2,4-triazole], for which the ED50 in test [3] (setting [4]) stood at 0.25 mg/kg.
For the molecule `CCc1ccccc1-c1nc(-c2cccc(F)c2)n[nH]1` [Example 18, 5-(o-Ethylphenyl)-3-(m-fluorophenyl)-1H-1,2,4-triazole], the responders at 20 mg/kg in test [1] is at least 60%. For the same molecule, the inhibition in vivo at 10 mg/kg in test [2] was around 60%. Also, the ED50 in test [3] (setting [4]) turned out to be 0.4 mg/kg.
As to `CCOc1cccc(-c2n[nH]c(-c3ccccc3CC)n2)c1` [Example 35, 3-(m-Ethoxyphenyl)-5-(o-ethylphenyl)-1H-1,2,4-triazole], the ED50 is 3 mg/kg in test [2] and 0.04 mg/kg in test [3] (setting [4]).
`COc1cccc(-c2n[nH]c(-c3ccc(Cl)cc3C)n2)c1` [Example 30, 5-(4-Chloro-2-methylphenyl)-3-(m-methoxyphenyl)-1H-1,2,4-triazole]: the responders at 20 mg/kg in test [1] is at least 60%. Moreover, in test [2], the inhibition in vivo at 10 mg/kg was around 60%. For the same molecule, the figures for the ED50 in test [2] and in test [3] (setting [4]) were 5 mg/kg and 0.04 mg/kg, respectively.
In the case of `C=CCOc1cccc(-c2n[nH]c(-c3ccccc3CC)n2)c1` [Example 13, 3-(m-Allyloxyphenyl)-5-(o-ethylphenyl)-1H-1,2,4-triazole], the ED50 in test [3] (setting [4]) came out at 0.1 mg/kg.
In the case of `COc1ccccc1-c1n[nH]c(-c2ccccc2C)n1` [Example 4, 3-(o-Methoxyphenyl)-5-(o-tolyl)-1H-1,2,4-triazole], the responders at 20 mg/kg in test [1] was at least 60%. Further, the inhibition in vivo at 10 mg/kg in test [2] is around 60%. In addition, the 50% effective dose (ED50) in test [3] (setting [4]) turned out to be 0.5 mg/kg.
